Here are results for two compounds from PMC4754833, “Rilpivirine analogs potently inhibit drug-resistant HIV-1 mutants” (Retrovirology, 2016).

Like-named read-outs stand apart in the source and are kept apart here.

As usually defined, the IC50 is the concentration that gives 50% inhibition.

Test [1] deals with WT HIV-1. The experiment in a line: single round infection luciferase assay, WT HIV-1. Format: cell-based. To be noted: Human immunodeficiency virus 1.
A further test has as its system HIV-1 RT mutant G190A. The test is described as follows: single round infection assay, G190A. To be noted: for IC50: Human immunodeficiency virus 1. Format: cell-based.
The subject of another test is HIV-1 RT mutant G190S. The test is described as follows: single round infection assay, G190S. Format: cell-based. To be noted: Human immunodeficiency virus 1.
For the next test, the system named is HIV-1 RT mutant M230L. The experiment in a line: single round infection assay, M230L. Format: cell-based. The conditions noted are these: M230L vs WT.
The subject of test [2] is HIV-1 RT mutant V106A/F227L. The experiment in a line: single round infection assay, V106A/F227L. Format: cell-based. To be noted: for fold-change of IC50 of the mutant relative to WT: V106A/F227L vs WT; for IC50: ± SD, n=4.
The next test relates to HIV-1 RT mutant E138K. The experiment in a line: single round infection assay, E138K. Format: cell-based. To be noted: for fold-change of IC50 of the mutant relative to WT: E138K vs WT; for IC50: ± SD, n=4.
The subject of test [3] is HIV-1 RT mutant K101E/M184I. The test is described as follows: single round infection assay, K101E/M184I. Format: cell-based. The conditions noted are these: K101E/M184I vs WT. The method, then: (§1) The human osteosarcoma cell line, HOS, was obtained from Dr. Richard Schwartz (Michigan State University, East Lansing, MI) and grown in Dulbecco’s modified Eagle’s medium (Invitrogen, Carlsbad, CA) supplemented with 5 % (v/v) fetal bovine serum, 5 % newborn calf serum, and penicillin (50 units/ml) plus streptomycin (50 µg/ml; Quality Biological, Gaithersburg, MD). Virion production and single-round infectivity assays were used to determine antiviral activity (IC50 values) of the compounds as previously described.
(§2) pNLNgoMIVR-ΔEnv.LUC has been described previously. The RT open reading frame was removed from pNLNgoMIVR-ΔEnv.LUC (digestion with SpeI and SalI) and inserted between the SpeI and SalI sites of pBluescript II KS+. Using that construct as the wild-type template, we prepared the following HIV-1 RT mutants using the QuikChange II XL (Stratagene, La Jolla, CA) site-directed mutagenesis protocol kit: L100I, K103N, Y181C, Y188L, H221Y, K103N/Y181C, G190A, G190S, M230L, P236L, L100I/K103N, K103N/P225H, V106A/G190A/F227L, V106A, L234I, V106A/F227L, V106A/L234I, V106A/F227L/L234I, E40K, D67E, K101E, V111A, E138K, M184I, M184V, K101E/M184I, K101E/M184V, E138K/M184I, E138K/M184V, K101P, Y181I, and K101P/V179I. The following sense oligonucleotides were used with matching cognate antisense oligonucleotides (not shown) (Integrated DNA Technologies, Coralville, IA) in the mutagenesis: L100I, 5′-[…]-3′; L100I 2-103, 5′-[…]-3′; K103N, 5′-[…]-3′; Y181C, 5′-[…]-3′; Y188L, 5′-[…]-3′; H221Y, 5′-[…]-3′; G190A, 5′-[…]-3′; G190S, 5′-[…]-3′; P225H, 5′-[…]-3′; F227, 5′-[…]-3′; M230L, 5′-[…]-3′; P236L, 5′-[…]-3′; V106A, 5′-[…]-3′; L234I, 5′-[…]-3′; E40K, 5′-[…]-3′; D67E, 5′-[…]-3′; K101E, 5′-[…]-3′; V111A, 5′-[…]-3′; E138K, 5′-[…]-3′; M184I, 5′-[…]-3′; M184V, 5′-[…]-3′; K101P, 5′-[…]-3′; Y181I, 5′-[…]-3′; K101P/V179I, 5′-[…]-3′. The double mutants K103N/Y181C, K103N/P225H, and L100I/K103N were made using the previously generated K103N mutant and the appropriate oligonucleotides to add the second mutation, Y181C, P225, and L100I respectively. The double mutants V106A/F227L and V106A/L234I were prepared using the previously generated V106A mutant and the appropriate oligonucleotides to add the second mutation, F227L and L234I, respectively. The double mutants K101E/M184I and K101E/M184V were constructed using the previously generated K101E mutant and the appropriate oligonucleotides to add the second mutation, M184I and M184V, respectively. The double mutants E138K/M184I and E138K/M184V were constructed using the previously generated E138K mutant and the appropriate oligonucleotides for the second mutation, M184I and M184V, respectively. The triple mutant V106A/F227L/L234I was made using the previously generated V106A/F227L double mutant and the appropriate oligonucleotides for the third mutation, L234I. The triple mutant V106A/G190A/F227L was constructed in a series of steps using the previously generated V106A mutant and the appropriate oligonucleotides for the second mutation, G190A, to generate the double mutant V106A/G190A, and then the triple mutant was made using double mutant V106A/G190A and oligonucleotides for the third mutation, F227L. The DNA sequence of each construct was verified by DNA sequence determination. The sequences encoding the mutant RTs were then subcloned into pNLNgoMIVR-ΔEnv.LUC (between the KpnI and SalI sites) to produce the mutant HIV-1 constructs. These DNA sequences were also checked independently by DNA sequence determination.
(§3) 10.1186/s12977-016-0244-2 The IC50 values (nM) of RPV and the RPV analogs were determined against the NNRTI resistant mutants were measured by using a single round infection assay, n = 4. The concentrations (nM) are measured by reductions in luciferase reporter activity followed by the standard deviations. […]

For test [4], the system named is HIV-1 RT mutant E138K/M184I. The experiment in a line: single round infection assay, E138K/M184I. The class given is cell-based. The conditions noted are these: E138K/M184I vs WT.
The subject of test [5] is HIV-1 RT mutant E138K/M184V. The test is described as follows: single round infection assay, E138K/M184V. Format: cell-based. To be noted: E138K/M184V vs WT. The method, then:
as §1, §2, §3

The subject of another test is HIV-1 RT mutant K101P. The test is described as follows: single round infection assay, K101P. The conditions noted are these: for IC50: Human immunodeficiency virus 1. The class given is cell-based.
In a further test the test system is HIV-1 RT mutant Y181I. The test is described as follows: single round infection assay, Y181I. Format: cell-based. To be noted: for IC50: Human immunodeficiency virus 1.
Test [6] deals with WT HIV-1. The conditions noted are these: previous study; cited from earlier work.
The test system of another test is HIV-1 RT mutant K103N. Also on record: method as in PMID 23217210. To be noted: previous study; cited from earlier work.
For the next test, the system named is HIV-1 RT mutant Y181C. Also on record: method as in PMID 23217210. The conditions noted are these: previous study; cited from earlier work.

In the case of `Cc1cc(/C=C/C#N)cc(C)c1Nc1nc(Nc2ccc(C#N)cc2)c2nc[nH]c2n1` [compound 13], the IC50 in the test with WT HIV-1 [1] was 0.26 ± 0.04 nM; in the test with HIV-1 RT mutant G190A, 0.3 ± 0.04 nM; in the test on HIV-1 RT mutant G190S, 0.12 nM; in the test on HIV-1 RT mutant K101P, 18.1 nM; in the test on HIV-1 RT mutant Y181I it was 1.2 nM; in the test with WT HIV-1 [6], less than 7 nM. The IC50 with HIV-1 RT mutant K103N and with HIV-1 RT mutant Y181C was less than 7 nM in each case. Also, the “fold-change of IC50 of the mutant relative to WT” value was less than 2 in the test on HIV-1 RT mutant G190A (G190A vs WT); 8 in the test with HIV-1 RT mutant M230L; less than 2 in test [2]; 5 in the test with HIV-1 RT mutant E138K; less than 2 in test [3]; 3 in test [4]. For the same compound, the “fold-change of IC50 of the mutant relative to WT” value in test [5] is listed as 4; in the test with HIV-1 RT mutant K101P (K101P vs WT), 70; with HIV-1 RT mutant Y181I (Y181I vs WT), 5.

On to `CC(=O)c1ccc(Nc2nc(Nc3c(C)cc(/C=C/C#N)cc3C)nc3[nH]cnc23)cc1` [compound 14], for which the IC50 with WT HIV-1 [1] is 0.41 ± 0.08 nM; in the test with HIV-1 RT mutant G190A, 0.13 ± 0.04 nM; in the test on HIV-1 RT mutant G190S, 0.35 ± 0.05 nM; in test [2] (Human immunodeficiency virus 1, V106A/F227L (selected by DOR)) it was less than 5 nM; in [2] (V106A/F227L (selected by DOR)), 4.9 ± 1.3 nM; in the test on HIV-1 RT mutant E138K (E138K), 2.6 ± 0.6 nM. The IC50 with HIV-1 RT mutant E138K (Human immunodeficiency virus 1, E138K) is less than 2.5 nM; with HIV-1 RT mutant K101P it was more than 100 nM; in the test on HIV-1 RT mutant Y181I, more than 100 nM; in the test on WT HIV-1 [6], less than 7 nM; with HIV-1 RT mutant K103N, less than 7 nM; in the test on HIV-1 RT mutant Y181C, less than 7 nM. In addition, the “fold-change of IC50 of the mutant relative to WT” value is 7 with HIV-1 RT mutant M230L; 12 in test [2]; 6 in the test on HIV-1 RT mutant E138K; less than 2 in [3]; 3 in test [4]; 2 in test [5].
